What was measured:
[1] = molar heat capacity at constant pressure; details: 101.33 kPa, Liquid, Vacuum adiabatic calorimetry
[2] = for molar entropy: 101.33 kPa, Vacuum adiabatic calorimetry; for vapor or sublimation pressure: Closed cell (Static) method

CN=C=O [methyl isocyanate]
[1]
Details | molar heat capacity at constant pressure [J/K/mol]
190 K | 103.2
192.13 K | 103.09
196.44 K | 103.09
197.5 K | 102.93
198.47 K | 103
200 K | 103
201 K | 102.97
202.92 K | 103
210 K | 103
211.33 K | 103
219.74 K | 103
220 K | 103
228.75 K | 102.9
230 K | 103.1
238.24 K | 103.3
240 K | 103.4
247.64 K | 103.6
250 K | 103.8
257.03 K | 104.1
260 K | 104.3
266.32 K | 104.6
270 K | 104.9
275.54 K | 105.4
280 K | 105.8
284.64 K | 106.1
290 K | 106.7
293.07 K | 107
300 K | 107.7
301.23 K | 107.7

[2]
Details | Triple point temperature [K] | molar entropy [J/K/mol] | vapor or sublimation pressure [kPa]
20 K, Crystal | – | 2.44 | –
30 K, Crystal | – | 6.933 | –
40 K, Crystal | – | 12.87 | –
50 K, Crystal | – | 19.5 | –
60 K, Crystal | – | 26.39 | –
70 K, Crystal | – | 33.31 | –
80 K, Crystal | – | 40.14 | –
90 K, Crystal | – | 46.89 | –
100 K, Crystal | – | 53.42 | –
110 K, Crystal | – | 59.72 | –
120 K, Crystal | – | 65.78 | –
130 K, Crystal | – | 71.59 | –
140 K, Crystal | – | 77.17 | –
150 K, Crystal | – | 82.52 | –
160 K, Crystal | – | 87.67 | –
170 K, Crystal | – | 92.65 | –
178.47 K, Liquid | – | – | 0.024
180 K, Liquid | – | 139.42 | –
184.03 K, Liquid | – | – | 0.036
189.11 K, Liquid | – | – | 0.04666
190 K, Liquid | – | 145 | –
194.19 K, Liquid | – | – | 0.06666
199.43 K, Liquid | – | – | 0.1293
200 K, Liquid | – | 150.29 | –
204.46 K, Liquid | – | – | 0.2053
209.49 K, Liquid | – | – | 0.3106
210 K, Liquid | – | 155.31 | –
214.49 K, Liquid | – | – | 0.4826
219.48 K, Liquid | – | – | 0.7226
220 K, Liquid | – | 160.1 | –
224.44 K, Liquid | – | – | 1.048
229.43 K, Liquid | – | – | 1.5
230 K, Liquid | – | 164.68 | –
234.35 K, Liquid | – | – | 2.12
239.21 K, Liquid | – | – | 2.938
240 K, Liquid | – | 169.08 | –
244.16 K, Liquid | – | – | 4.036
249.07 K, Liquid | – | – | 5.45
250 K, Liquid | – | 173.31 | –
253.98 K, Liquid | – | – | 7.286
258.88 K, Liquid | – | – | 9.597
260 K, Liquid | – | 177.38 | –
263.72 K, Liquid | – | – | 12.47
268.59 K, Liquid | – | – | 16.03
270 K, Liquid | – | 181.33 | –
273.4 K, Liquid | – | – | 20.31
278.1 K, Liquid | – | – | 25.44
280 K, Liquid | – | 185.16 | –
282.71 K, Liquid | – | – | 31.41
287.27 K, Liquid | – | – | 38.39
290 K, Liquid | – | 188.89 | –
296.38 K, Liquid | – | – | 56.22
297.07 K, Liquid | – | – | 57.78
300 K, Liquid | – | 192.52 | –
Crystal, Adiabatic calorimetry | 178.46 | – | –
